This is an account of results in patent publication US10100076B2, “Modified nucleosides for the treatment of viral infections and abnormal cellular proliferation” (priority 2000, dated 2018).

Data set [1] deals with HCV replicon. The data set can be described thus: HCV replicon system in Huh7 cells, replicon RNA by Q-RT-PCR (HCV ΔCt, ΔΔCt). To be noted: for Ave. ΔΔCt: HCV RNA ΔCt minus rRNA ΔCt; for Ave. HCV RNA ΔCt: HCV replicon in Huh7 cells; for average ΔΔCt: HCV RNA ΔCt minus rDNA ΔCt. It is filed as cell-based, hepatitis C virus. Background: Replicon systems follow genome replication, usually without infectious particles.

Data set [2] relates to rRNA (host RNA polymerase I product). The data set can be described thus: rRNA ΔCt in Huh7 replicon cells (effect on host RNA polymerases). To be noted: Table 24, average of n. An excerpt: In a typical setting, a compound might reduce both the host RNA polymerase activity and the replicon-encoded polymerase activity. Therefore, quantification of rRNA (or any other host RNA polymerase I product) or beta-actin mRNA (or any other host RNA polymerase II) and comparison with RNA levels of the no-drug control is a relative measurement of the effect of the test compound on host RNA polymerases.
With the availability of both the HCV ΔCt data and the rRNA ΔCt, a specificity parameter can be introduced. This parameter is obtained by subtracting both ΔCt values from each other.

In data set [3] the test system is rDNA (host DNA). As to the kind of experiment: rDNA ΔCt in Huh7 replicon cells (effect on cellular DNA polymerases). The note with it: Table 25, average of N. An excerpt: In another typical setting, a compound might reduce the host RNA polymerase activity, but not the host DNA polymerase activity. Therefore, quantification of rDNA or beta-actin DNA (or any other host DNA fragment) and comparison with DNA levels of the no-drug control is a relative measurement of the inhibitory effect of the test compound on cellular DNA polymerases.
With the availability of both the HCV ΔCt data and the rDNA ΔCt, a specificity parameter can be introduced. This parameter is obtained by subtracting both ΔCt values from each other.
Also: test concentration or dose not given here.

In the case of `NC(=O)c1ncn([C@@H]2O[C@H](CO)[C@@H](O)[C@H]2O)n1` [RIB, ribavirin, reference compound], the “Ave. ΔΔCt” value in data set [1] (Table 24) was found to be 0.78. In addition, the “Ave. HCV RNA ΔCt” value in data set [1] (Table 24, average of n) stood at 3.13. In addition, the “Ave. rRNA ΔCt” value in data set [2] is 2.35.
Take `Nc1ccn([C@@H]2O[C@H](CO)[C@@H](O)[C@@H]2O)c(=O)n1` [β-D-AA]: in data set [1] (Table 24), the “Ave. ΔΔCt” value was 1.42. Further, the “Ave. HCV RNA ΔCt” value was 3.83 in data set [1] (Table 24, average of n) and 3.83 in data set [1] (Table 25, average of N). Further, the “average ΔΔCt” value in data set [1] (Table 25) is given as 1.88. Besides, the “Ave. rRNA ΔCt” value in data set [2] turned out to be 2.41. In addition, the “Ave. rDNA ΔCt” value in data set [3] was 2.53.
For the molecule `Nc1ccn([C@@H]2O[C@H](CO)[C@H](Br)[C@H]2O)c(=O)n1` [β-D-AI], the “Ave. ΔΔCt” value in data set [1] (Table 24) is 0.48. In addition, the “Ave. HCV RNA ΔCt” value in data set [1] (Table 24, average of n) is recorded as 2.93; in data set [1] (Table 25, average of N), 3.76. For the same molecule, the “average ΔΔCt” value in data set [1] (Table 25) was 4.55. Moreover, the “Ave. rRNA ΔCt” value in data set [2] turned out to be 2.43. For the same molecule, the “Ave. rDNA ΔCt” value in data set [3] was −0.96.
`CS(=O)(=O)OC1C(CO)OC(n2ccc(N)nc2=O)C1O` [β-D-AK]: the “Ave. ΔΔCt” value in data set [1] (Table 24) is given as 1.25. Besides, the “Ave. HCV RNA ΔCt” value is 3.73 in data set [1] (Table 24, average of n) and 3.51 in data set [1] (Table 25, average of N). For the same molecule, the “average ΔΔCt” value in data set [1] (Table 25) turned out to be 0.79. For the same molecule, the “Ave. rRNA ΔCt” value in data set [2] is 2.48. In data set [3], the “Ave. rDNA ΔCt” value is listed as 2.69.
Consider `Cc1ccc(S(=O)(=O)O[C@@H]2[C@@H](O)[C@H](n3ccc(N)nc3=O)O[C@@H]2CO)cc1` [β-D-AL], for which the “Ave. ΔΔCt” value in data set [1] (Table 24) turned out to be 0.36. For the same molecule, the “Ave. HCV RNA ΔCt” value in data set [1] (Table 24, average of n) was determined as 3.08; in data set [1] (Table 25, average of N), 3.18. Besides, the “average ΔΔCt” value in data set [1] (Table 25) is given as 0.61. The “Ave. rRNA ΔCt” value in data set [2] was 2.72. Moreover, the “Ave. rDNA ΔCt” value in data set [3] is 2.56.
`Nc1ccn([C@@H]2O[C@H](CO)[C@@H](O)[C@@H]2Cl)c(=O)n1` [β-D-AN]: the “Ave. ΔΔCt” value in data set [1] (Table 24) was 1.22. The “Ave. HCV RNA ΔCt” value came out at 3.33 in data set [1] (Table 24, average of n) and 3.86 in data set [1] (Table 25, average of N). Further, the “average ΔΔCt” value in data set [1] (Table 25) was 1.88. Also, the “Ave. rRNA ΔCt” value in data set [2] stood at 2.11. Moreover, the “Ave. rDNA ΔCt” value in data set [3] was 2.53.
Regarding `[2H]c1c(N)nc(=O)n([C@@H]2O[C@H](CO)[C@@H](O)[C@@H]2O)c1[2H]` [β-D-AO], in data set [1] (Table 24), the “Ave. ΔΔCt” value was determined as 1.97. Also, the “Ave. HCV RNA ΔCt” value in data set [1] (Table 24, average of n) was determined as 4.10; in data set [1] (Table 25, average of N), 4.10. For the same molecule, the “average ΔΔCt” value in data set [1] (Table 25) is 2.26. In data set [2], the “Ave. rRNA ΔCt” value came out at 2.13. Further, in data set [3], the “Ave. rDNA ΔCt” value is listed as 1.84.
`Nc1nc(=O)n([C@@H]2O[C@H](CO)[C@@H](O)[C@@H]2O)cc1F` [β-D-AP]: in data set [1] (Table 24), the “Ave. ΔΔCt” value is 0.05. Besides, the “Ave. HCV RNA ΔCt” value was 3.27 in data set [1] (Table 24, average of n) and 3.27 in data set [1] (Table 25, average of N). Besides, in data set [1] (Table 25), the “average ΔΔCt” value was determined as 1.02. Also, the “Ave. rRNA ΔCt” value in data set [2] came out at 3.23. The “Ave. rDNA ΔCt” value in data set [3] turned out to be 2.26.
With `Nc1nc(=O)n([C@@H]2O[C@H](CO)[C@@H](O)[C@H]2O)cc1F` [β-D-AQ], the “Ave. ΔΔCt” value in data set [1] (Table 24) is recorded as 1.22. The “Ave. HCV RNA ΔCt” value is 4.45 in data set [1] (Table 24, average of n) and 4.75 in data set [1] (Table 25, average of N). Besides, the “average ΔΔCt” value in data set [1] (Table 25) is given as 2.73. In data set [2], the “Ave. rRNA ΔCt” value came out at 3.22. Also, in data set [3], the “Ave. rDNA ΔCt” value was 1.78.
On to `Nc1nc(=O)n(C2OC(CO)C(Br)C2O)cc1F` [β-D-AT], for which the “Ave. ΔΔCt” value in data set [1] (Table 24) is 0.64. The “Ave. HCV RNA ΔCt” value is recorded as 3.71 in data set [1] (Table 24, average of n) and 3.81 in data set [1] (Table 25, average of N). Further, in data set [1] (Table 25), the “average ΔΔCt” value amounted to 1.43. For the same molecule, the “Ave. rRNA ΔCt” value in data set [2] came to 3.07. In data set [3], the “Ave. rDNA ΔCt” value came out at 2.43.
Consider `Nc1nc(=O)n([C@@H]2O[C@H](CO)[C@H](Br)[C@H]2O)cc1I` [β-D-BE], for which the “Ave. ΔΔCt” value in data set [1] (Table 24) was 1.64. The “Ave. HCV RNA ΔCt” value is listed as 4.44 in data set [1] (Table 24, average of n) and 4.99 in data set [1] (Table 25, average of N). In data set [1] (Table 25), the “average ΔΔCt” value is given as 2.98. Further, the “Ave. rRNA ΔCt” value in data set [2] is on record as 2.80. The “Ave. rDNA ΔCt” value in data set [3] was 2.06.
`Cc1ccc(S(=O)(=O)O[C@@H]2[C@@H](O)[C@H](n3cc(I)c(N)nc3=O)O[C@@H]2CO)cc1` [β-D-BF]: the “Ave. ΔΔCt” value in data set [1] (Table 24) is on record as 1.68. Also, the “Ave. HCV RNA ΔCt” value in data set [1] (Table 24, average of n) was determined as 4.37; in data set [1] (Table 25, average of N), 5.27. The “average ΔΔCt” value in data set [1] (Table 25) was found to be 3.28. The “Ave. rRNA ΔCt” value in data set [2] was 2.69. Moreover, the “Ave. rDNA ΔCt” value in data set [3] worked out at 2.04.
With `Nc1nc(=O)n([C@@H]2O[C@H](CO)[C@@H](O)[C@@H]2Br)cc1I` [β-D-BH], the “Ave. ΔΔCt” value in data set [1] (Table 24) amounted to 2.15. For the same molecule, the “Ave. HCV RNA ΔCt” value was determined as 3.06 in data set [1] (Table 24, average of n) and 3.06 in data set [1] (Table 25, average of N). In addition, the “average ΔΔCt” value in data set [1] (Table 25) amounted to 1.64. In addition, in data set [2], the “Ave. rRNA ΔCt” value came out at 0.91. The “Ave. rDNA ΔCt” value in data set [3] was determined as 1.42.
